Test results reported in publication PMC10410440, “Preclinical PK investigation of a novel IDO1/TDO dual inhibitor—SHR9146 in mouse plasma and tissues by LC-MS/MS” (Frontiers in Oncology, 2023).
Read-outs that look alike come from different tables or passages of the source.

Test: Plasma pharmacokinetics of SHR9146 in mice (LC-MS/MS, non-compartmental analysis)
Assay type: in vivo, ICR mice
Conditions: for MRT inf: read-out: MRT0-∞
Protocol: ICR mice with body weight 16–26 g were supplied by Shanghai Lingchang Biotechnology Co., Ltd. (animal breeding license number SCXK (Shanghai) 2013-0018) and housed at Shanghai Institute of Materia Medica, Chinese Academy of Sciences [animal use license number SYXK (Shanghai) 2015-0027]. The mice used in this study were fasted overnight for 12 h but had free access to water. Food was supplied 4 h post-dose. All experiments in this study were conducted in accordance with the Guidelines for the Care and Use of Laboratory Animals of Shanghai Institute of Materia Medica, Chinese Academy of Sciences.
A total of 30 mice were randomly assigned into five groups with equal numbers, males and females. One group was intravenously administrated with 5 mg/kg SHR9146 dissolved in […] plus 95% saline (adjusted pH to 4.0) under sterile conditions. The remaining four groups were administered respectively with a single dose of 20 , 40, or 80 mg/kg or multiple doses of 20 mg/kg twice daily for 7 days, by oral gavage of SHR9146 dissolved in 0.5% CMC-Na. Blood samples were obtained from the fossa orbitalis vein at 15 and 30 min and 1.0, 2.0, 4.0, 6.0, 8.0, 10.0, and 24.0 h after oral gavage administration. An additional 5-min time point was included for iv injection, as well as the pre-drug administration time points on the fifth, sixth, and seventh days in the multiple-dose group. The blood samples were collected in EDTA K2 anticoagulant blood collection tubes and centrifuged at 1,000 rpm for 5 min at 4°C. The supernatant plasma samples were thus produced.
Briefly as follows, an aliquot of 25-μL plasma or tissue homogenate was spiked with 100 μL of internal standard solution (1 μg/mL for plasma, 0.2 μg/mL for tissue homogenate) and 300 μL of methanol added and vortex mixed for 60 s. The mixture was then centrifuged at 14,000 rpm at 4°C for 5.0 min, and the supernatant was diluted with methanol–water (4:1, v/v) in a ratio of 1:9 for the plasma or 1:1 for the tissue homogenate, and 5 μL of the resulting solution was injected for the LC-MS/MS analysis.
The pharmacokinetic parameters of SHR9146 in mouse plasma were estimated by Phoenix 1.4 software using a non-compartmental model.
The mean concentration–time curves of SHR9146 in mouse plasma after a single oral gavage dose of 20, 40, or 80 mg/kg, or a single intravenous dose of 5 mg/kg, or the 7th-day steady state after twice-daily multiple oral doses of 20 mg/kg are shown in Figure 5 (Table S6).

[1] = 20 mg/kg i.g. single dose, all mice (Totol, 3 male + 3 female), plasma
[2] = 20 mg/kg i.g. single dose, female mice, plasma
[3] = 20 mg/kg i.g. single dose, male mice, plasma
[4] = 20 mg/kg oral twice daily for 7 days vs single 20 mg/kg oral dose, mice
[5] = 40 mg/kg i.g. single dose, male mice, plasma
[6] = 80 mg/kg i.g. single dose, all mice (Totol, 3 male + 3 female), plasma
[7] = 80 mg/kg i.g. single dose, female mice, plasma
[8] = 80 mg/kg i.g. single dose, male mice, plasma
[9] = ICR, mouse, iv, 5 mg/kg i.v. single dose, female mice, plasma
[10] = ICR, mouse, iv, 5 mg/kg i.v. single dose, male mice, plasma
[11] = both sexes, ICR, mouse, iv, 5 mg/kg i.v. single dose, all mice (Totol, 3 male + 3 female), plasma
[12] = both sexes, ICR, mouse, plasma, intravenous, 5 mg/kg, 5 mg/kg i.v., read-out: plasma drug concentration, individual mice #1-#6
[13] = both sexes, ICR, mouse, plasma, intravenous, 5 mg/kg, 5 mg/kg i.v., read-out: plasma drug concentration, mean (n=6)
[14] = both sexes, ICR, mouse, plasma, oral, 20 mg/kg, 20 mg/kg i.g. bid, 7 days, 7th day, read-out: plasma drug concentration, individual mice #1-#6
[15] = both sexes, ICR, mouse, plasma, oral, 20 mg/kg, 20 mg/kg i.g. bid, 7 days, 7th day, read-out: plasma drug concentration, mean (n=6)
[16] = both sexes, ICR, mouse, plasma, oral, 20 mg/kg, 20 mg/kg i.g. single, read-out: plasma drug concentration, mean (n=6)
[17] = both sexes, ICR, mouse, plasma, oral, 40 mg/kg, 40 mg/kg i.g. single, read-out: plasma drug concentration, mean (n=6)

## OCCn1cc(-c2ccc(N3CCC([C@H]4c5c(F)cccc5-c5cncn54)CC3)cc2)cn1 [SHR9146]
5 mg/kg i.v., 4 h
  plasma drug concentration, individual mice #1-#6: BLQ
5 mg/kg i.v., 6 h
  plasma drug concentration, individual mice #1-#6: BLQ
5 mg/kg i.v., 8 h
  plasma drug concentration, individual mice #1-#6: BLQ
5 mg/kg i.v., 10 h
  plasma drug concentration, individual mice #1-#6: BLQ
5 mg/kg i.v., 24 h
  plasma drug concentration, individual mice #1-#6: BLQ
5 mg/kg i.v., liver blood flow around 90 mL/min/kg (ref 23)
  CL as share of the blood flow of mouse liver: 13.3%
5 mg/kg i.v., total body fluid around 0.725 L/kg (ref 23)
  Vd as share of the total body fluid of mice: 91.9%
20 mg/kg i.g. bid, 7 days (7th-day steady state), all mice (Totol, 3 male + 3 female), plasma
  CL: 13.7 mL/min/kg
20 mg/kg i.g. bid, 7 days (7th-day steady state), female mice, plasma
  CL: 13.7 mL/min/kg
20 mg/kg i.g. bid, 7 days (7th-day steady state), male mice, plasma
  CL: 13.6 mL/min/kg
20 mg/kg i.g. bid, 7 days, 7th day, 0 h
  plasma drug concentration, individual mice #1-#6: BLQ
20 mg/kg i.g. bid, 7 days, 7th day, 8 h
  plasma drug concentration, individual mice #1-#6: BLQ
20 mg/kg i.g. bid, 7 days, 7th day, 10 h
  plasma drug concentration, individual mice #1-#6: BLQ
20 mg/kg i.g. bid, 7 days, 7th day, 24 h
  plasma drug concentration, individual mice #1-#6: BLQ
20 mg/kg i.g. bid, 7 days, Fifth day, pre-drug administration
  plasma drug concentration, individual mice #1-#6: BLQ
20 mg/kg i.g. bid, 7 days, Sixth day, pre-drug administration
  plasma drug concentration, individual mice #1-#6: BLQ
20 mg/kg i.g. single (dose cell empty, taken from the line above), 24 h
  plasma drug concentration, individual mice #1-#6: BLQ
[1]
  CL: 20.5 mL/min/kg
  Vd: 2.02 L/kg
[2]
  CL: 18.6 mL/min/kg
  Vd: 1.88 L/kg
[3]
  CL: 22.8 mL/min/kg
  Vd: 2.189 L/kg
20 mg/kg i.g. single, 4 h
  plasma drug concentration, individual mice #1-#6: BLQ
20 mg/kg i.g. single, 6 h
  plasma drug concentration, individual mice #1-#6: BLQ
20 mg/kg i.g. single, 8 h
  plasma drug concentration, individual mice #1-#6: BLQ
20 mg/kg i.g. single, 10 h
  plasma drug concentration, individual mice #1-#6: BLQ
[4]
  steady-state AUC relative to single oral dose: 1.55 fold
  steady-state Cmax relative to single oral dose: 1.08 fold
20 mg/kg oral twice daily for 7 days, mouse plasma
  accumulation after multiple oral doses: no significant accumulation
[5]
  CL: 20.0 mL/min/kg
  Vd: 3.07 L/kg
40 mg/kg i.g. single, 6 h
  plasma drug concentration, individual mice #1-#6: BLQ
40 mg/kg i.g. single, 8 h
  plasma drug concentration, individual mice #1-#6: BLQ
40 mg/kg i.g. single, 10 h
  plasma drug concentration, individual mice #1-#6: BLQ
40 mg/kg i.g. single, 24 h
  plasma drug concentration, individual mice #1-#6: BLQ
[6]
  CL: 18.8 mL/min/kg
  Vd: 5.19 L/kg
[7]
  CL: 20.2 mL/min/kg
  Vd: 4.00 L/kg
[8]
  CL: 17.6 mL/min/kg
  Vd: 6.22 L/kg
80 mg/kg i.g. single, 6 h
  plasma drug concentration, individual mice #1-#6: BLQ
80 mg/kg i.g. single, 8 h
  plasma drug concentration, individual mice #1-#6: BLQ
80 mg/kg i.g. single, 24 h
  plasma drug concentration, individual mice #1-#6: BLQ
[9]
  clearance: 12.1 mL/min/kg
  MRT inf: 0.882 h
ICR, mouse, iv, 5 mg/kg i.v. single dose, female mice, plasma, read-out: Vd
  Vd: 0.638 L/kg
[10]
  clearance: 12 mL/min/kg
  MRT inf: 0.965 h
ICR, mouse, iv, 5 mg/kg i.v. single dose, male mice, plasma, read-out: Vd
  Vd: 0.694 L/kg
ICR, mouse, plasma, intravenous, 5 mg/kg, 5 mg/kg i.v., 8 h, read-out: plasma drug concentration, individual mice #1-#6
  concentration at 8 h: 149 ng/mL
ICR, mouse, po, 20 mg/kg i.g. single dose, female mice, plasma
  MRT inf: 1.68 h
ICR, mouse, po, 20 mg/kg i.g. single dose, male mice, plasma
  MRT inf: 1.6 h
ICR, mouse, po, 40 mg/kg i.g. single dose, male mice, plasma
  MRT inf: 2.56 h
ICR, mouse, po, 80 mg/kg i.g. single dose, female mice, plasma
  MRT inf: 3.29 h
ICR, mouse, po, 80 mg/kg i.g. single dose, male mice, plasma
  MRT inf: 5.9 h
[11]
  clearance: 12 mL/min/kg
  MRT inf: 0.923 h
Both sexes, ICR, mouse, iv, 5 mg/kg i.v. single dose, all mice (Totol, 3 male + 3 female), plasma, read-out: Vd
  Vd: 0.666 L/kg
[12]
  concentration at 0.083 h: 7880 ng/mL
  concentration at 0.25 h: 5210 ng/mL
  concentration at 0.5 h: 4530 ng/mL
  concentration at 1 h: 2450 ng/mL
[13]
  concentration at 0.083 h: 6860 ng/mL
  concentration at 0.25 h: 5230 ng/mL
  concentration at 0.5 h: 3610 ng/mL
  concentration at 1 h: 2760 ng/mL
  concentration at 2 h: 605 ng/mL
Both sexes, ICR, mouse, plasma, intravenous, 5 mg/kg, 5 mg/kg i.v., 4 h, read-out: plasma drug concentration, mean (n=6)
  concentration at 4 h: 126 ng/mL
Both sexes, ICR, mouse, plasma, iv, 5 mg/kg, 5 mg/kg i.v. single dose, all mice (Totol, 3 male + 3 female), plasma
  AUC(0-inf): 6930 ng·h/mL
Both sexes, ICR, mouse, plasma, iv, 5 mg/kg, 5 mg/kg i.v. single dose, all mice (Totol, 3 male + 3 female), plasma, read-out: AUC0-t
  AUC(0-t): 6760 ng·h/mL
Both sexes, ICR, mouse, plasma, iv, 5 mg/kg, 5 mg/kg i.v. single dose, all mice (Totol, 3 male + 3 female), plasma, read-out: t1/2 (converted)
  half-life: 0.713 h
Both sexes, ICR, mouse, plasma, mice, all doses and routes except the high oral dose (80 mg/kg), read-out: mean terminal half-life in plasma, range
  half-life: 0.699 to 1.66 h
[14]
  concentration at 0.25 h: 4300 ng/mL
  concentration at 1 h: 9900 ng/mL
[15]
  concentration at 0.25 h: 5710 ng/mL
  concentration at 0.5 h: 8020 ng/mL
  concentration at 1 h: 9430 ng/mL
  concentration at 2 h: 6170 ng/mL
  concentration at 3 h: 3170 ng/mL
Both sexes, ICR, mouse, plasma, oral, 20 mg/kg, 20 mg/kg i.g. bid, 7 days, 7th day, 4 h, read-out: plasma drug concentration, mean (n=6)
  concentration at 4 h: 1590 ng/mL
Both sexes, ICR, mouse, plasma, oral, 20 mg/kg, 20 mg/kg i.g. bid, 7 days, 7th day, 6 h, read-out: plasma drug concentration, mean (n=6)
  concentration at 6 h: 453 ng/mL
Both sexes, ICR, mouse, plasma, oral, 20 mg/kg, 20 mg/kg i.g. bid, 7 days, 7th day, 8 h, read-out: plasma drug concentration, mean (n=6)
  concentration at 8 h: 58 ng/mL
Both sexes, ICR, mouse, plasma, oral, 20 mg/kg, 20 mg/kg i.g. bid, 7 days, 7th day, 10 h, read-out: plasma drug concentration, individual mice #1-#6
  concentration at 10 h: 58 ng/mL
Both sexes, ICR, mouse, plasma, oral, 20 mg/kg, 20 mg/kg i.g. bid, 7 days, 7th day, 24 h, read-out: plasma drug concentration, individual mice #1-#6
  concentration at 24 h: 54 ng/mL
[16]
  concentration at 0.25 h: 7500 ng/mL
  concentration at 0.5 h: 8140 ng/mL
  concentration at 1 h: 4620 ng/mL
  concentration at 2 h: 3980 ng/mL
  concentration at 3 h: 2950 ng/mL
Both sexes, ICR, mouse, plasma, oral, 20 mg/kg, 20 mg/kg i.g. single, 4 h, read-out: plasma drug concentration, mean (n=6)
  concentration at 4 h: 526 ng/mL
Both sexes, ICR, mouse, plasma, oral, 20 mg/kg, 20 mg/kg i.g. single, 6 h, read-out: plasma drug concentration, individual mice #1-#6
  concentration at 6 h: 242 ng/mL
Both sexes, ICR, mouse, plasma, oral, 20 mg/kg, 20 mg/kg i.g. single, 8 h, read-out: plasma drug concentration, individual mice #1-#6
  concentration at 8 h: 194 ng/mL
[17]
  concentration at 0.25 h: 4830 ng/mL
  concentration at 0.5 h: 5310 ng/mL
